Measured values: the NIST ThermoML archive (doi:10.1021/je300762m)
Several values for one entry are separate records, joined by “and”; a condition that tells them apart may be missing. Equal entries are not always repeated.

Columns and labels:
[1] = molar heat capacity at constant pressure; details: Liquid, Large sample (1 g) DSC
[2] = molar heat capacity at constant pressure; xn = mol fraction of the nth substance listed; details: 100 kPa, Liquid, Large sample (1 g) DSC, x1 = 0.38

CC [ethane]
[1]
Details	molar heat capacity at constant pressure [J/K/mol]
108.15 K, 1050 kPa	67.9
108.15 K, 2020 kPa	67.87
108.15 K, 4290 kPa	67.78
118.15 K, 1060 kPa	68.26
118.15 K, 2030 kPa	67.63
118.15 K, 4290 kPa	68.95
128.15 K, 4310 kPa	68.65
143.15 K, 4080 kPa	68.62
153.15 K, 4070 kPa	69.94
163.15 K, 4050 kPa	70.84
188.15 K, 1120 kPa	73.46
188.15 K, 4310 kPa	72.41
228.15 K, 1170 kPa	81.04
228.15 K, 4320 kPa	80.07
238.15 K, 1210 kPa	83.71
238.15 K, 4330 kPa	82.72

CCCCCCC [heptane]
[1], 100 kPa
Details	molar heat capacity at constant pressure
228.15 K	202.31 J/K/mol and 201.51 J/K/mol
238.15 K	206.22 J/K/mol and 205.11 J/K/mol
303.15 K	225.96 J/K/mol and 225.25 J/K/mol
313.15 K	229.16 J/K/mol and 230.87 J/K/mol

C [methane]
[1]
Details	molar heat capacity at constant pressure [J/K/mol]
108.15 K, 4230 kPa	54.4
108.15 K, 6300 kPa	54.11
118.15 K, 4270 kPa	55.54
118.15 K, 6350 kPa	55.11
128.15 K, 4330 kPa	57.03
128.15 K, 6400 kPa	56.66
143.15 K, 4350 kPa	59.37
153.15 K, 4340 kPa	63.24
153.15 K, 6340 kPa	60.98
163.15 K, 4390 kPa	67.7
163.15 K, 6470 kPa	64.51
173.15 K, 4380 kPa	77.87
173.15 K, 6450 kPa	70.97

CCC [propane]
[1]
Details	molar heat capacity at constant pressure [J/K/mol]
108.15 K, 1160 kPa	84.97
108.15 K, 3680 kPa	86.69
108.15 K, 5160 kPa	86.65
108.15 K, 5330 kPa	84.8
118.15 K, 1170 kPa	84.75
118.15 K, 3650 kPa	87.09
118.15 K, 5180 kPa	87.04
118.15 K, 5430 kPa	85.46
128.15 K, 1180 kPa	85.28
128.15 K, 3640 kPa	86.65
128.15 K, 3670 kPa	86.3
128.15 K, 5190 kPa	86.56
128.15 K, 5430 kPa	85.55
143.15 K, 1130 kPa	86.43
143.15 K, 3690 kPa	86.69
143.15 K, 5180 kPa	86.56
153.15 K, 1190 kPa	87.62
153.15 K, 5200 kPa	88.68
163.15 K, 1170 kPa	87.97
163.15 K, 5210 kPa	89.34
188.15 K, 1190 kPa	91.15
188.15 K, 5220 kPa	91.1
228.15 K, 1150 kPa	98.73
228.15 K, 3670 kPa	98.42
228.15 K, 5220 kPa	98.11
238.15 K, 1110 kPa	101.24
238.15 K, 3680 kPa	100.71
238.15 K, 5220 kPa	100.63
248.15 K, 1160 kPa	103.58
248.15 K, 3670 kPa	102.17
248.15 K, 5190 kPa	101.46
258.15 K, 1160 kPa	105.65
258.15 K, 3680 kPa	104.11
258.15 K, 5220 kPa	103.76

Cc1ccccc1 [toluene]
[1], 100 kPa
Details	molar heat capacity at constant pressure
228.15 K	138.39 J/K/mol and 139.13 J/K/mol
238.15 K	140.79 J/K/mol and 140.97 J/K/mol
303.15 K	159.03 J/K/mol and 157.65 J/K/mol
313.15 K	162.35 J/K/mol and 161.98 J/K/mol

Cc1ccccc1 [toluene] + CCCCCCC
[2]
Details	molar heat capacity at constant pressure [J/K/mol]
228.15 K	166.3
238.15 K	168.05
303.15 K	185.24
313.15 K	189.52
